# Results: ChEMBL document CHEMBL1129229, “Synthesis and trypanocidal activity of the bis-carba analogue of pentamidine” (1996)
# Test system: Mus musculus
# Assay: Effective dose against Trypanosoma brucei S427/118 infection in mice, administered ip after 24 hr
# Format: functional
row,Structure (SMILES),ED50
1,N=C(N)c1ccc(CCCCCCCc2ccc(C(=N)N)cc2)cc1,7.3 mg/kg
2,N=C(N)c1ccc(OCCCCCOc2ccc(C(=N)N)cc2)cc1 [PENTAMIDINE],0.38 mg/kg
